Legend:
GK = assay: Islet GK enzyme activity after treatment; type: cell-based, mouse
Excerpt: (§1) All chemicals were purchased from Sigma (Saint Louis, Mo.) unless indicated otherwise. Detailed protocols, reagents, and instruments for islet isolation, culture, and insulin secretion were the same as described previously (Wang et al., “Molecular Mechanisms for Hyperinsulinaemia Induced by Overproduction of Selenium-Dependent Glutathione Peroxidase-1 in Mice,” Diabetologia 51:1515-1524 (2008), which is hereby incorporated by reference in its entirety). Briefly, Langerhans' islets were isolated from the WT, GKO, SKO, and dKO mice using a standard procedure (Gotoh et al., “An Improved Method for Isolation of Mouse Pancreatic Islets,” Transplantation 40:437-438 (1985), which is hereby incorporated by reference in its entirety) with minor modifications. Isolated islets (50 per sample, n=3 per group) were recovered in RPMI 1640 (Gibco, Grand Island, N.Y.) with 5.5 mM glucose and 10% FBS for 2 hours before treatment. For the islet experiments, ebselen, CuDIPs, and Se (sodium selenite) were used at 50, 10, and 0.1 μM and prepared in DMSO, ethanol, and saline, respectively. The same amounts of vehicle were used as the respective controls. The chemicals were removed after 5 hour incubation, and the islets were transferred to Krebs-Henseleit buffer for 30 min and then incubated for 60 min with 2.8 or 16.7 mM glucose in the same buffer. The supernatants were collected for insulin analysis and the islets were used for mRNA, protein, and enzyme activity analyses.
(§2) Islet GK activity was assayed at 28° C. by measuring absorbance increases of NADPH at 340 nm in a coupled enzyme system. One unit of GK activity was defined as the amount that catalyzes the formation of 1 μmole of glucose 6-phosphate per minute. Islet and liver LDH activities were measured using a kit from Sigma according to the manufacturer's instructions. Islet and liver GSR activities were measured as previously-described (Zhu et al., “Double Null of Selenium-Glutathione Peroxidase-1 and Copper, Zinc-Superoxide Dismutase Enhances Resistance of Mouse Primary Hepatocytes to Acetaminophen Toxicity,” Exp. Biol. Med. (Maywood) 231:545-552 (2006), which is hereby incorporated by reference in its entirety) and one unit of activity was defined as 1 nmol of glutathione disulfide reduced per minute. Plasma ALT activity was assayed using a kit (Thermo Scientific, Waltham, Mass.) according to the manufacturer's instructions. Plasma AKP activity was measured by the hydrolysis of p-nitrophenol phosphate to p-nitrophenol, and the enzyme activity unit was defined as the amount of activity that releases 1 μmol of p-nitrophenol per minute at 30° C. (Bowers et al., “A Continuous Spectrophotometric Method for Measuring the Activity of Serum Alkaline Phosphatase,” Clin. Chem. 12:70-89 (1966), which is hereby incorporated by reference in its entirety).

[1] = tested on: islets isolated from WT, GKO, SKO, and dKO mice; assay: Glucose-stimulated insulin secretion (GSIS) of isolated islets; type: cell-based, mouse; settings: for GSIS (insulin secretion) versus solvent control: 16.7 mM glucose, 5 hour pre-treatment
Excerpt: as §1

GLUT2 = assay: Islet GLUT2 protein level (Western blot); type: cell-based, mouse
Excerpt: as §1
(§3) Islet samples used for Western blot analysis were homogenized in phosphate buffer (50 mM, pH 7.4) containing 0.1% Triton X-100 and protease inhibitor mixture (AEBSF, aprotinin, bestatin hydrochloride, E-64-[N-(transepoxysuccinyl)-L-leucine 4-guanidinobutylamide], leupeptin, and pepstatin A). The homogenates were centrifuged at 14000×g for 10 min at 4° C. A total of 10 μg of protein per lane was subjected to Western blot analysis (McClung et al., “Development of Insulin Resistance and Obesity in Mice Overexpressing Cellular Glutathione Peroxidase,” Proc. Natl. Acad. Sci. USA 101:8852-8857 (2004), which is hereby incorporated by reference in its entirety). After the gel electrophoresis, the separated proteins were transferred onto a protran BA85 nitrocellulose membrane (Schleicher Schuell Bioscience, Keene, N.H.). The membranes were incubated first with respective primary antibodies (rabbit anti-GLUT2, anti-PDX1, and anti-UCP2, Millipore, Billerica, Mass.), and thereafter the second antibody against rabbit IgG (Bio-Rad, Hercules, Calif.). For loading and transfer normalization, the rabbit anti-β-actin antibody (Cell Signaling, Beverly, Mass.) was used. An enhanced chemiluminescent kit (Pierce, Rockford, Ill.) was used for detection of the band intensity.

PDX1 = assay: Islet PDX1 protein level (Western blot); type: cell-based, mouse
Excerpt: as §1, §3

UCP2 = assay: Islet UCP2 protein level (Western blot); type: cell-based, mouse
Excerpt: as §1, §3

[2] = tested on: gk, glut2, pdx1, ucp2 and genes in the ARE, GR, Wnt and NFAT pathways; assay: Real time Q-PCR of islet mRNA levels (GSIS regulators, ARE, GR, Wnt, NFAT pathway genes); type: cell-based, mouse; settings: dKO islets
Excerpt: All chemicals were purchased from Sigma (Saint Louis, Mo.) unless indicated otherwise. Detailed protocols, reagents, and instruments for islet isolation, culture, and insulin secretion were the same as described previously (Wang et al., “Molecular Mechanisms for Hyperinsulinaemia Induced by Overproduction of Selenium-Dependent Glutathione Peroxidase-1 in Mice,” Diabetologia 51:1515-1524 (2008), which is hereby incorporated by reference in its entirety). Briefly, Langerhans' islets were isolated from the WT, GKO, SKO, and dKO mice using a standard procedure (Gotoh et al., “An Improved Method for Isolation of Mouse Pancreatic Islets,” Transplantation 40:437-438 (1985), which is hereby incorporated by reference in its entirety) with minor modifications. Isolated islets (50 per sample, n=3 per group) were recovered in RPMI 1640 (Gibco, Grand Island, N.Y.) with 5.5 mM glucose and 10% FBS for 2 hours before treatment. […]
Total RNA was extracted from islets using Trizol reagent (Invitrogen, Carlsbad, Calif.). […] Relative mRNA levels were determined by real time Q-PCR (7900HT; Applied Biosystems, Foster City, Calif.) as previously described (Pepper et al., “Impacts of Dietary Selenium Deficiency on Metabolic Phenotypes of Diet-Restricted GPX1-Overexpressing Mice,” Antioxid. Redox Signal. 14:383-390 (2011), which is hereby incorporated by reference in its entirety).

GKO mice [3] = assay: Off-target toxicity in GKO mice (plasma ALT, AKP; liver LDH, GSR); type: in vivo, mouse; settings: 50 mg/kg i.p., 1 hour
Protocol: (§4) Ebselen was dissolved in dimethyl sulfoxide (DMSO) and injected with saline (1:1 by volume) together. The same volume of DMSO and saline was used as the solvent control. Blood glucose concentrations were measured by clipping tails and using the Glucometer Elite system (Bayer, Elkhart, Ind.). Plasma insulin concentrations were determined using a rat/mouse Insulin ELISA kit with mouse insulin as standards (Crystal Chem, Downers Grove, Ill.).
as §2

[4] = i.p. in 4% w/v hydroxypropyl-β-cyclodextrin to C57BL/6 mice or suspended in water orally to humans; cited from earlier work
GKO mice [5] = assay: Glucose tolerance test (GTT) in GKO mice; type: in vivo, mouse; settings: fasted GKO mice, 50 mg/kg i.p., glucose 1 g/kg
Protocol: as §4

GKO mice [6] = assay: In vivo GSIS test in GKO mice (plasma insulin); parameters: species or system mouse; settings: fasted GKO mice
Protocol: as §4

intracellular ROS = assay: Islet intracellular ROS (DCFH-DA probe); type: cell-based, mouse; settings: GKO islets, DCF probe
Protocol: Islet ROS levels were determined using the fluorescent probe, 2′,7′-dichlorofluorescin diacetate (“DCFH-DA”). Briefly, the treated islets were washed and incubated with DCFH-DA (20 μM) for 10 min at 37° C. After removal of the probe, cells were washed with pre-warmed PBS. Fluorescence was monitored at 488 nm excitation and 525 nm emission wavelengths.

[7] = target: T1, glutathione reductase (GSR) (Mus musculus, UniProt P47791); assay: Islet GSR activity; type: cell-based; settings: WT and GKO islets
T1 construct: from tissue; host or cells: isolated pancreatic islets of WT and GKO mice
T1 sequence (P47791 27-500): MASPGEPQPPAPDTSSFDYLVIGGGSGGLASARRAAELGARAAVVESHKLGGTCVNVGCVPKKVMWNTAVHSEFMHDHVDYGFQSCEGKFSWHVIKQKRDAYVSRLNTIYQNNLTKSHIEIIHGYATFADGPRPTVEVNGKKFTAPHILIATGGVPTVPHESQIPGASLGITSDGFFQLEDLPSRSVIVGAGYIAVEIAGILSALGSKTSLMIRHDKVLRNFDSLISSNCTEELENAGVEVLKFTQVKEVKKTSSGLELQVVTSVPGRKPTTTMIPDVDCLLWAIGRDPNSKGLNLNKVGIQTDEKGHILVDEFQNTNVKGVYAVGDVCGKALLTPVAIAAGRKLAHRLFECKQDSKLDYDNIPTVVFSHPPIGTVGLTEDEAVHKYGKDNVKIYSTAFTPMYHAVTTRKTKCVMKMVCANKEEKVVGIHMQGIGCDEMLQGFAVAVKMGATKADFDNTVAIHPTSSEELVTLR
Protocol: as §2

[8] = tested on: lactate dehydrogenase (LDH); assay: Islet LDH activity; type: cell-based, mouse; settings: WT and GKO islets
Protocol: as §2

## O=[Se]([O-])[O-].[Na+].[Na+] [Na2SeO3, sodium selenite]
GK; GKO islets
  GK activity change versus control (direction): increased
GK; SKO islets
  GK activity change versus control (direction): decreased
GK; dKO islets
  GK activity change versus control (direction): Neither CuDIPs nor Na2SeO3 affected
[1]; GKO islets
  GSIS (insulin secretion) versus solvent control: did not affect
[1]; SKO islets
  GSIS (insulin secretion) versus solvent control: elevated
[1]; WT islets
  GSIS (insulin secretion) versus solvent control: did not affect
[1]; dKO islets
  GSIS (insulin secretion) versus solvent control: elevated
GLUT2; dKO islets
  GLUT2 protein change versus control (direction): Neither CuDIPs nor Na2SeO3 affected
PDX1; dKO islets
  PDX1 protein change versus control (direction): Neither CuDIPs nor Na2SeO3 affected
UCP2; dKO islets
  UCP2 protein change versus control (direction): Neither CuDIPs nor Na2SeO3 affected

## copper diisopropylsalicylate [CuDIPs]
GK; GKO islets
  GK activity change versus control (direction): decrease
GK; dKO islets
  GK activity change versus control (direction): Neither CuDIPs nor Na2SeO3 affected
[1]; SKO islets, 2.8 mM glucose
  baseline insulin secretion versus solvent control: promoted
[1]; SKO islets
  GSIS (insulin secretion) versus solvent control: promoted
[1]; WT islets
  GSIS (insulin secretion) versus solvent control: no effect
GLUT2; GKO islets
  GLUT2 protein change versus control (direction): increase
GLUT2; SKO islets
  GLUT2 protein elevation versus control: 63%
GLUT2; WT islets
  GLUT2 protein change versus control (direction): increased
GLUT2; dKO islets
  GLUT2 protein change versus control (direction): Neither CuDIPs nor Na2SeO3 affected
[2]
  expression of genes in the four pathways (ARE, GR, Wnt, NFAT) versus controls: suppressed
PDX1; SKO islets
  PDX1 protein elevation versus control: 2.4 fold
PDX1; WT islets
  PDX1 protein change versus control (direction): increased
PDX1; dKO islets
  PDX1 protein change versus control (direction): Neither CuDIPs nor Na2SeO3 affected
UCP2; SKO islets
  UCP2 protein decrease versus control: 78%
UCP2; WT islets
  UCP2 protein change versus control (direction): increased
UCP2; dKO islets
  UCP2 protein change versus control (direction): Neither CuDIPs nor Na2SeO3 affected

## O=c1c2ccccc2[se]n1-c1ccccc1 [ebselen]
GK; GKO islets
  GK activity elevation versus control: 20%
GK; SKO islets
  GK activity elevation versus control: 86%
GK; WT islets
  GK activity elevation versus control: 74%
GK; dKO islets
  GK activity elevation versus control: 58%
GKO mice [3]
  hepatic GSR activity versus control: no differences
  hepatic LDH activity versus control: no differences
  plasma alanine aminotransferase (ALT) activity versus control: no differences
  plasma alkaline phosphatase (AKP) activity versus control: no differences
[4]
  absorption: absorbed to blood
  blood-brain barrier crossing: crossed the blood-brain barrier
GKO mice [5]; 15 min
  glucose clearance improved: 17%
GKO mice [5]; 30 min
  glucose clearance improved: 18%
GKO mice [5]; 60 min
  glucose clearance improved: 21%
GKO mice [6]; 50 mg/kg i.p. 1 hour before glucose challenge, 0 min (baseline)
  elevation of plasma insulin concentration versus control: 95%
GKO mice [6]; 50 mg/kg i.p., 15 min after the glucose challenge
  elevation of plasma insulin concentration versus control: 1.2 fold
GKO mice [6]; 50 mg/kg i.p., 30 min after the glucose challenge
  elevation of plasma insulin concentration versus control: 91%
GLUT2; GKO islets
  GLUT2 protein elevation versus control: 2.1 fold
GLUT2; SKO islets
  GLUT2 protein elevation versus control: 6.4 fold
GLUT2; WT islets
  GLUT2 protein elevation versus control: 4.9 fold
GLUT2; dKO islets
  GLUT2 protein elevation versus control: 85%
Intracellular ROS
  decrease of intracellular ROS: 74%
PDX1; GKO islets
  PDX1 protein elevation versus control: 4.0 fold
PDX1; SKO islets
  PDX1 protein elevation versus control: 3.2 fold
PDX1; WT islets
  PDX1 protein elevation versus control: 5.5 fold
[7]
  effect on GSR activity: no effect
[8]
  effect on LDH activity: no effect

Reference: patent US20150297564A1 (CORNELL UNIVERSITY, priority 2014, published 2015)
